PMC7908975, “Antioxidant and Anti-Inflammatory Activity of Citrus Flavanones Mix and Its Stability after In Vitro Simulated Digestion” (Antioxidants, 2021)

Tests used:
[1] = system: IL-6 release in Caco-2 cells; experiment: IL-6 release, IL-1β stimulated Caco-2 transwell model; type: cell-based, human; conditions: 24 h
Procedure: (§1) Experiments were carried out on transwell models (CacoReady™, Readycell, Barcelona, Spain) consisting of Caco-2 cells (8.5 × 10^4 cells/cm^2, passage number 41–58) seeded on polyester microporous filters in 24-well HTS plates (6.5 mm diameter, 0.33 cm^2 area and 0.4 µm of pore size) (Corning Incorporated, Corning, NY, USA). Completed Dulbecco’s Modified Eagle Medium (DMEM), prepared according to Denaro et al., was added on the apical (0.3 mL) and basolateral side (0.9 mL) of the Transwell® insert. After 21 days of culture, Caco-2 cells were completely differentiated and polarized, such that their phenotype resembled the morphological and functional features of mature enterocytes lining the small intestine.
(§2) Before starting with the anti-inflammatory experiments, the monolayer integrity was checked by measuring the trans-epithelial electrical resistance (TEER) with a Millicell® ERS-2 V/ohmmeter (Merck Millipore, Darmstadt, Germany) equipped with STX 100C electrode (World Precision Instruments, Sarasota, FL, USA). Caco-2-plated filters with epithelial resistance ≥800 Ω/cm^2 were used.
(§3) The anti-inflammatory activity of FM and digested FM (DFM) was evaluated on Caco-2 transwell model, according to Tesoriere et al., with some modifications. Briefly, 1.4 mM FM (see Section 2.3) was diluted 140 times in completed DMEM, obtaining a 10 µM FM (DMSO < 0.1%). […]
(§4) IL-6 and IL-8 release were measured by high-sensitivity human ELISA kits (Cymax IL-6 YIF-LF-EK0260 and Cymax IL-8YIF-LF-EK0262, Ab Frontiers, Adipogen Corporation, 9853 Pacific Heights Blvd., Suite L San Diego, CA, USA) according to the manufacturer’s recommendations, whereas NO release was estimated according to Tesoriere et al. by Griess reaction. […] Absorbance was recorded at 550 nm using a microplate reader (Multiskan GO, Thermo Scientific, Waltham, MA, USA). Results were expressed as µM NO extrapolating the results by a reference standard curve of sodium nitrite (1.0–15 µM).

[2] = system: NO release in Caco-2 cells; experiment: NO release (Griess reaction), IL-1β stimulated Caco-2 transwell model; type: cell-based, human; conditions: 24 h
Procedure: as §1, §2, §3, §4

[3] = system: IL-8 release in Caco-2 cells; experiment: IL-8 release, IL-1β stimulated Caco-2 transwell model; type: cell-based, human; conditions: 24 h
Procedure: as §1, §2, §3, §4

[4] = In vitro simulated human gastric and duodenal digestion with LC-DAD-ESI-MS/MS quantification; type: in vitro ADME; conditions: with respect to starting FM 10 µM; for DFM (µM): flavanone in duodenal digested flavanones mix: after gastric 2 h plus duodenal 4 h digestion, 37 °C; for GFM (µM): flavanone in gastric digested flavanones mix: after gastric digestion 2 h, pH 2.5, 37 °C
From the text: Based on the results of the preliminary antioxidant and anti-inflammatory screening (see Section 2.2), the most powerful flavanones (neohesperidin, hesperidin, neoeriocitrin, eriocitrin, and hesperetin) were selected in order to prepare a flavanones mix (FM), which was, at first instance, investigated by the same in vitro colorimetric assays (see Section 2.2) in order to evaluate its potency with respect to the single flavanones and to elucidate potential synergistic mechanisms. The following final concentration range of FM were used: FRAP (2.50–20 µM), ORAC (0.08–0.60 µM), TEAC (0.31–2.50 µM), DPPH (1.25–10 µM), ADA (5.0–40 µM), and APA (2.50–20 µM). After that, being the results of the preliminary antioxidant and anti-inflammatory screening of FM very promising, an appropriate concentration was chosen to proceed with the subsequent analyses. In particular, the FM was prepared on the assumption that digested sample, which would then be applied to the Caco-2 cells for the anti-inflammatory experiments, had to contain an equimolar concentration of the five most powerful flavanones (neohesperidin, hesperidin, neoeriocitrin, eriocitrin, and hesperetin) equal to 10 µM, which represents the mean efficacy concentration taking into account the IC50 values obtained in the preliminary antioxidant and anti-inflammatory screening of the FM. At this purpose, stock solutions (14 mM) of flavanones in DMSO were mixed and diluted 10-fold with Milli-Q water to obtain the 1.4 mM FM, which was used to carried out the in vitro simulated human digestion. In vitro gastric and duodenal digestion of FM was carried out according to Trombetta et al. with some modifications. FM solution (1.5 mL) (see Section 2.3), has been dissolved in 7.5 mL of simulated gastric solution containing 0.127 mM egg-phosphatidylcholine and adjusting the pH to 2.5, by 1 M HCl. Gastric pepsin and lipase (9000 U/mL and 60 U/mL, respectively) were added to the mixture starting the gastric digestion phase, which was protracted for 2 h at 37 °C, incubating under continuous stirring (170 rpm) by an Innova 4000 Benchtop Incubator Shaker (New Brunswick Scientific, Edison, NJ, USA). The gastric phase was stopped by the addition of 1M NaOH in order to reach a pH of 7.5, and 6 mL of the previous solution passed to the duodenal digestion phase. Duodenal solution was prepared by adding 2.10 mL of simulated bile solution (6.5 mM phosphatidylcholine, 4 mM cholesterol, 12.5 mM sodium taurocholate, and 12.5 mM sodium glycodeoxycholate) to 5.9 mL of simulated pancreatic juice containing pancreatic lipase (590 U/mL), colipase (3.2 µg/mL), trypsin (11 U/mL), α-chymotrypsin (24 U/mL), and α-amylase (300 U/mL). The duodenal mixture was incubated for 4 h under continuous stirring at 37 °C as described above. At the end, both gastric and duodenal digesta were immediately stored at −80 °C until the subsequent analyses. For quali-quantitative determination of flavanones, gastric and duodenal digesta were extracted with methanol (1:2, v/v) by mixing for 3 min. After that, samples were centrifuged at 12,000× g for 10 min, filtered by a 0.22 µm nylon syringe filter and injected into a liquid chromatograph equipped with a diode-array detector and mass spectrophotometer (LC-DAD-MS system, Agilent technologies, Santa Clara, CA, USA). The chromatographic separation was obtained using a reverse phase column Luna Omega PS C18 (150 × 2.1 mm, 5 µm; Phenomenex, Torrance, CA, USA) by using solvent A (formic acid 0.1% v/v) and solvent B (acetonitrile) as mobile phase according to the following elution gradient: 0 min, 0% B; 3–9 min, 3% B; 9–24 min, 12% B; 24–30 min, 20% B; 30–33 min, 33–43 30% B; 43–66 min 50% di B; 66–81 min 60% di B; 81–86 min 0% di B; 86–90 min 0% di B. […] UV–Vis spectra of flavanones were recorded (190–400 nm) and chromatograms were acquired at 292 nm, maximum flavanones absorption wavelength. […]

[5] = system: trypsin; experiment: Anti-protease activity (APA), anti-tryptic activity; type: biochemical
Procedure: The anti-tryptic activity of sample was evaluated according to Smeriglio et al.. Briefly, 200 µL of each flavanone (6.25–140 µM) or diclofenac sodium as reference compound (10–80 µM) were added to 12 µL of trypsin (10 µg/mL) and 188 µL of 25 mM Tris-HCl buffer (pH 7.5). After that, 200 µL of 0.8% casein solution were added and samples incubated for 20 min at 37 °C in a water bath. After that, 400 µL of perchloric acid were added to stop the reaction. The cloudy suspension, due to the protein precipitation, was centrifuged at 3500× g for 10 min and the absorbance of the supernatant was recorded at 280 nm against a blank consisting of deionized water instead of sample. Based on the results of the preliminary antioxidant and anti-inflammatory screening (see Section 2.2), the most powerful flavanones (neohesperidin, hesperidin, neoeriocitrin, eriocitrin, and hesperetin) were selected in order to prepare a flavanones mix (FM), which was, at first instance, investigated by the same in vitro colorimetric assays (see Section 2.2) in order to evaluate its potency with respect to the single flavanones and to elucidate potential synergistic mechanisms. The following final concentration range of FM were used: FRAP (2.50–20 µM), ORAC (0.08–0.60 µM), TEAC (0.31–2.50 µM), DPPH (1.25–10 µM), ADA (5.0–40 µM), and APA (2.50–20 µM). […]

[6] = Trolox Equivalent Antioxidant Capacity (TEAC) assay
Procedure: TEAC assay was carried out according to Bazzicalupo et al.. […] Fifty microliters of each flavanone (2.0–64 µM) or trolox as reference compound (2.50–20 µM) were added to 1 mL of the TEAC reagent and incubated at RT in the dark for 6 min. The absorbance was recorded at 734 nm. Based on the results of the preliminary antioxidant and anti-inflammatory screening (see Section 2.2), the most powerful flavanones (neohesperidin, hesperidin, neoeriocitrin, eriocitrin, and hesperetin) were selected in order to prepare a flavanones mix (FM), which was, at first instance, investigated by the same in vitro colorimetric assays (see Section 2.2) in order to evaluate its potency with respect to the single flavanones and to elucidate potential synergistic mechanisms. The following final concentration range of FM were used: FRAP (2.50–20 µM), ORAC (0.08–0.60 µM), TEAC (0.31–2.50 µM), DPPH (1.25–10 µM), ADA (5.0–40 µM), and APA (2.50–20 µM). After that, being the results of the preliminary antioxidant and anti-inflammatory screening of FM very promising, an appropriate concentration was chosen to proceed with the subsequent analyses. […]

[7] = design: method as in PMID 19728713; conditions: as compounds of a bitter orange extract; cited from earlier work
[8] = 10 µM co-treatment with IL-1β 25 ng/mL

Row | Compound | DFM (µM): flavanone in duodenal digested flavanones mix [4] | GFM (µM): flavanone in gastric digested flavanones mix [4] | IC50 in comparison with reference standard trolox, TEAC [6] | stability after simulated in vitro digestion [7] | other results
1 | C[C@@H]1C[C@H]2[C@@H]3CCC4=CC(=O)C=C[C@]4(C)[C@@]3(F)[C@@H](O)C[C@]2(C)[C@@]1(O)C(=O)CO [Dex, dexamethasone] |  |  |  |  | pro-inflammatory activity, IL-6 release vs CTR− ([1]; 10 µM alone, without IL-1β): did not show any pro-inflammatory activity; IL-6 release with respect to positive control (CTR+) [1, 8]: statistically significant decrease (p < 0.001); pro-inflammatory activity, NO release vs CTR− ([2]; 10 µM alone, without IL-1β): did not show any pro-inflammatory activity; inhibition of NO release [2, 8]: ~16%; pro-inflammatory activity, IL-8 release vs CTR− ([3]; 10 µM alone, without IL-1β): did not show any pro-inflammatory activity; inhibition of IL-8 release [3, 8]: ~66%
2 | C[C@@H]1O[C@@H](OC[C@H]2O[C@@H](Oc3cc(O)c4c(c3)O[C@H](c3ccc(O)c(O)c3)CC4=O)[C@H](O)[C@@H](O)[C@@H]2O)[C@H](O)[C@H](O)[C@H]1O [Eriocitrin, eriodictyol-7-O-rutinoside] | 8.80 ± 0.03 µM | 9.05 ± 0.12 µM |  |  | 
3 | COc1ccc(C2CC(=O)c3c(O)cc(O)cc3O2)cc1O (centres unmarked) [Hesperetin, 3′,5,7-trihydroxy-4′-methoxyflavanone] | 8.76 ± 0.22 µM | 9.38 ± 0.18 µM | a behavior comparable with the reference standard | stable after simulated in vitro digestion | anti-inflammatory activity less than the other tested molecules, protease inhibition [5]: about 4 times
4 | COc1ccc([C@@H]2CC(=O)c3c(O)cc(O[C@@H]4O[C@H](CO[C@@H]5O[C@@H](C)[C@H](O)[C@@H](O)[C@H]5O)[C@@H](O)[C@H](O)[C@H]4O)cc3O2)cc1O [Hesperidin, hesperetin-7-O-rutinoside] | 9.86 ± 0.13 µM | 9.95 ± 0.04 µM | a behavior comparable with the reference standard | stable after simulated in vitro digestion | 
5 | IL-1β: well-known pro-inflammatory agent used at 25 ng/mL to trigger inflammation (CTR+) |  |  |  |  | increase in IL-6 vs CTR− ([1]; 25 ng/mL): ~ 7 folds; increase in NO release vs CTR− ([2]; 25 ng/mL): ~ 2.5 folds; increase in IL-8 vs CTR− ([3]; 25 ng/mL): ~ 27 folds
